Reference: patent US20150290200A1, “INTRACELLULAR KINASE INHIBITORS” (Pharmacyclics Inc., priority 2006, published 2015)
Like-named read-outs stand apart in the source and are kept apart here. Values belong to the compound of their own block, whether it stands above or below them.

Experiments:
BTK kinase domain = target: T1, BTK kinase domain (Homo sapiens, UniProt Q06187); experiment: In vitro kinase assay (HITHUNTER), BTK; type: biochemical
T1 construct: The kinase domains of BTK, LCK and ERK were expressed as recombinant purified proteins; made in house
Source text: Similarly, commercially available reagents such as HITHUNTER™ were used to evaluate the effect of compounds on the activity of additional kinases. The kinase domains of BTK, LCK and ERK were expressed as recombinant purified proteins were used for these studies.

ITK kinase domain = target: T2, ITK kinase domain (Homo sapiens, UniProt Q08881); experiment: In vitro kinase assay (HITHUNTER enzyme fragment complementation), ITK; type: biochemical
T2 construct: N-terminally His-tagged ITK kinase domain (amino acids 352-617); His (N); made in house
T2 sequence (Q08881 352-617): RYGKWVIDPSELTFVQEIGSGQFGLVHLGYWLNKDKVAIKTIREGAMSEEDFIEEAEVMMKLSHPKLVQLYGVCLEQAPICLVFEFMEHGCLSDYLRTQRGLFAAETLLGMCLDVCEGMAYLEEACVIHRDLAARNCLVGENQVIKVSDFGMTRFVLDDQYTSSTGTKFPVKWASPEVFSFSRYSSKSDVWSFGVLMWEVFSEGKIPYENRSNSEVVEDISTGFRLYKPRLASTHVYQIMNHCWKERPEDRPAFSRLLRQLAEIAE
Method: Compounds were screened using the HITHUNTER™ enzyme fragment complementation method (Discoverx). Briefly, a recombinantly produced, N-terminally His-tagged ITK kinase domain (amino acids 352-617) was incubated with various concentrations of individual compounds. ATP and substrate were added, and the kinase reaction was allowed to proceed for 2-16 hours. Commercially available detection reagents were added and allowed to react for 2-4 hours. The reaction was evaluated by luminescence. Initial results were confirmed using full-length recombinant ITK protein.
In order to confirm the mechanism by which compounds depicted herein interact with the kinase domain of Tec and EGFR kinases, we created a point mutant of the ITK kinase domain, whereby the key amino acid, namely C442 was mutated to alanine. The protein was expressed in a commercial baculovirus expression system using the manufacturer's general protocol (Invitrogen, pBlueBac). Protein was expressed and purified using standard techniques. […] While the activity of WT-ITK was inhibited by compounds depicted in this application, the same compounds had no activity towards the C442A mutant kinase domain.

[1] = Table 3, naphthyl analog, read-out: IC50 ITK
[2] = Table 3, Compound, read-out: IC50 ITK

T1 sequence (Q06187 402-655 limits assumed): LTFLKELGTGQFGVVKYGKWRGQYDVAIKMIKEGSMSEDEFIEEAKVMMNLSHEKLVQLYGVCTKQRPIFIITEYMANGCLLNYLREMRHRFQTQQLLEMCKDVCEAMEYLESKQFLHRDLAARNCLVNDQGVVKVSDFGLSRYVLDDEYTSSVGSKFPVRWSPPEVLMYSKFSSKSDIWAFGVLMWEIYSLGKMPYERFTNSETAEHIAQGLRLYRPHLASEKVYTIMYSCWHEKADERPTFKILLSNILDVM

SMILES: O=C(CCN1CCC(c2ccccn2)C1)c1ccc2ccccc2c1 (stereo not shown)
IC50 (ITK kinase domain; Table 5, read-out: IC50 ITK): 35.9 nM

SMILES: CN(C)C1CCN(CCC(=O)c2ccc3ccccc3c2)CC1 [drawing 216]
IC50 (ITK kinase domain; Table 5, read-out: IC50 ITK): 9.5 nM

SMILES: O=C1COc2ccc(C(=O)CCN3CCOCC3)cc2N1 [drawing 166]
IC50 (BTK kinase domain; Table 3, Compound): 781 nM
IC50 (ITK kinase domain; [2]): 5.9 nM

SMILES: CN(CCC(=O)c1ccc2c(c1)NC(=O)CO2)Cc1ccc(F)cc1
IC50 (BTK kinase domain; Table 3, Compound): 300 nM
IC50 (ITK kinase domain; [2]): 10 nM

SMILES: CN(C)C1CCN(CCC(=O)c2ccc3ccccc3c2)C1 (stereo not shown) [drawing 214]
IC50 (BTK kinase domain; Table 5): 49.2 nM
IC50 (ITK kinase domain; Table 5, read-out: IC50 ITK): 6.9 nM

SMILES: O=C(CCN1CCCCNC1)c1ccc2ccccc2c1
IC50 (BTK kinase domain; Table 5): 51 nM
IC50 (ITK kinase domain; Table 5, read-out: IC50 ITK): 87 nM

SMILES: O=C(CCN1CCOCC1)c1cnc2ccccc2c1
IC50 (BTK kinase domain; Table 4): 100 nM
IC50 (ITK kinase domain; Table 4, read-out: IC50 ITK): 189 nM

SMILES: CN(CCC(=O)c1ccc2ccccc2c1)Cc1ccc(C(F)(F)F)cc1
IC50 (ITK kinase domain; Table 4, read-out: IC50 ITK): 56.7 nM

SMILES: O=C(CCN1CCC(Cc2ccccc2)CC1)c1ccc2ccccc2c1 [drawing 182]
IC50 (ITK kinase domain; Table 4, read-out: IC50 ITK): 92.8 nM

SMILES: O=C(CCN1CCOCC1)c1ccc2sccc2c1
IC50 (BTK kinase domain; Table 4): 334 nM
IC50 (ITK kinase domain; Table 4, read-out: IC50 ITK): 60 nM

SMILES: CC(C)(C)C(=O)N1CCN(CCC(=O)c2ccc3ccccc3c2)CC1
IC50 (BTK kinase domain; Table 5): 360 nM
IC50 (ITK kinase domain; Table 5, read-out: IC50 ITK): 64 nM

SMILES: COc1cc2c(cc1OC)CN(CCC(=O)c1ccc3c(c1)NC(=O)CO3)CC2 [drawing 168]
IC50 (BTK kinase domain; Table 3, Compound): 276 nM
IC50 (ITK kinase domain; [2]): 30 nM

SMILES: O=C(CCN1CCc2ccccc2C1)c1ccc2ccccc2c1 [drawing 209]
IC50 (ITK kinase domain; Table 5, read-out: IC50 ITK): 21.2 nM

SMILES: CN1CCN(CCC(=O)c2ccc3ccccc3c2)CC1 [drawing 208]
IC50 (ITK kinase domain; Table 5, read-out: IC50 ITK): 30.9 nM

SMILES: O=CNc1ccc2cc(C(=O)CCN3CCOCC3)ccc2c1
IC50 (BTK kinase domain; Table 4): 2 nM
IC50 (ITK kinase domain; Table 4, read-out: IC50 ITK): 42 nM

SMILES: O=C(CCN1Cc2ccccc2C1)c1ccc2ccccc2c1 [drawing 217]
IC50 (ITK kinase domain; Table 5, read-out: IC50 ITK): 16.2 nM

SMILES: CN(CCC(=O)c1ccc2ccccc2c1)Cc1ccco1 [drawing 215]
IC50 (ITK kinase domain; Table 5, read-out: IC50 ITK): 18.7 nM

SMILES: CC(C)C1CCN(CCC(=O)c2ccc3ccccc3c2)CC1
IC50 (ITK kinase domain; Table 1, ITK, read-out: IC50): 13.3 nM

SMILES: O=C(CCN1CCCCC1)c1ccc2ccccc2c1
IC50 (ITK kinase domain; Table 5, read-out: IC50 ITK): 537 nM

SMILES: O=C(CCN1CCN(Cc2ccccc2)CC1)c1ccc2ccccc2c1
IC50 (ITK kinase domain; Table 4, read-out: IC50 ITK): 30.3 nM

The next lines start with the values.

IC50 (BTK kinase domain; Table 3, naphthyl analog): 12.8 nM
IC50 (ITK kinase domain; [1]): 7 nM
SMILES: COc1cc2c(cc1OC)CN(CCC(=O)c1ccc3ccccc3c1)CC2 [drawing 169]

IC50 (BTK kinase domain; Table 5): 18 nM
IC50 (ITK kinase domain; Table 5, read-out: IC50 ITK): 54 nM
SMILES: O=C(CCN1CCN(C(=O)c2ccncc2)CC1)c1ccc2ccccc2c1

IC50 (ITK kinase domain; Table 5, read-out: IC50 ITK): 161 nM
SMILES: CN(C)CCC(=O)c1ccc2ccccc2c1

IC50 (ITK kinase domain; Table 5, read-out: IC50 ITK): 852 nM
SMILES: CC1CCCN1CCC(=O)c1ccc2ccccc2c1 (stereo not shown)

IC50 (BTK kinase domain; Table 5): 71 nM
IC50 (ITK kinase domain; Table 5, read-out: IC50 ITK): 31 nM
SMILES: O=C(CCN1CCSCC1)c1ccc2ccccc2c1

IC50 (BTK kinase domain; Table 3, naphthyl analog): 39.5 nM
IC50 (ITK kinase domain; [1]): 20 nM
SMILES: O=C(CCN1CCOCC1)c1ccc2ccccc2c1 [drawing 167]

IC50 (ITK kinase domain; Table 1, ITK, read-out: IC50): 0.85 nM
SMILES: COc1cc2c(cc1OC)CN(CCC(=O)c1ccc3ccccc3c1)CC2 [drawing 116]

IC50 (BTK kinase domain; Table 4): 8170 nM
IC50 (ITK kinase domain; Table 4, read-out: IC50 ITK): 176 nM
SMILES: O=C(CCN1CCOCC1)c1c[nH]c2ccccc12

IC50 (BTK kinase domain; Table 4): 611 nM
IC50 (ITK kinase domain; Table 4, read-out: IC50 ITK): 134 nM
SMILES: O=C(CCN1CCOCC1)c1csc2ccccc12

IC50 (ITK kinase domain; Table 5, read-out: IC50 ITK): 16.3 nM
SMILES: CC(C)N(C)CCC(=O)c1ccc2ccccc2c1

IC50 (BTK kinase domain; Table 5): 4 nM
IC50 (ITK kinase domain; Table 5, read-out: IC50 ITK): 36 nM
SMILES: O=C(CCNCC1CCN(C(=O)c2ccncc2)CC1)c1ccc2ccccc2c1

IC50 (BTK kinase domain; Table 4): 2360 nM
IC50 (ITK kinase domain; Table 4, read-out: IC50 ITK): 3340 nM
SMILES: O=C(O)c1ccc2cc(C(=O)CCN3CCOCC3)ccc2c1

IC50 (BTK kinase domain; Table 5): 153 nM
IC50 (ITK kinase domain; Table 5, read-out: IC50 ITK): 23 nM
SMILES: NC(=O)N1CCN(CCC(=O)c2ccc3ccccc3c2)CC1

IC50 (BTK kinase domain; Table 3, Compound): 481 nM
IC50 (ITK kinase domain; [2]): 18 nM
SMILES: CN(C)CCN1CCN(CCC(=O)c2ccc3c(c2)NC(=O)CO3)CC1

IC50 (BTK kinase domain; Table 5): 8220 nM
IC50 (ITK kinase domain; Table 5, read-out: IC50 ITK): 137 nM
SMILES: O=C(CCN1CCCC1)c1ccc2ccccc2c1 [drawing 201]

IC50 (ITK kinase domain; Table 1, ITK, read-out: IC50): 6.86 nM
SMILES: CC(C)C1CCN(CCC(=O)c2ccc3ccccc3c2)C1 (stereo not shown)

IC50 (BTK kinase domain; Table 3, Compound): 544 nM
IC50 (ITK kinase domain; [2]): 23 nM
SMILES: CC(C)N(CCC(=O)c1ccc2c(c1)NC(=O)CO2)C(C)C

IC50 (ITK kinase domain; Table 2, read-out: IC50 ITK): 20 nM
SMILES: COc1ccc(C(=O)CCN2CCOCC2)cc1[N+](=O)[O-]

IC50 (ITK kinase domain; Table 5, read-out: IC50 ITK): 14.8 nM
SMILES: O=C(CCN1CCN(c2ccccn2)CC1)c1ccc2ccccc2c1 [drawing 205]

IC50 (ITK kinase domain; Table 7, elimination mechanism, read-out: IC50 ITK): 44.6 nM
SMILES: O=C(CCN1CCOCC1)c1ccc2ccccc2c1 [drawing 254]

IC50 (ITK kinase domain; Table 1, ITK, read-out: IC50): 11.4 nM
SMILES: O=C(CCN1CCN(CC2CCCCC2)CC1)c1ccc2ccccc2c1 [drawing 111]

IC50 (ITK kinase domain; Table 1, ITK, read-out: IC50): 50.4 nM
SMILES: CN1CCN(CCC(=O)c2ccc3ccccc3c2)CC1 [drawing 110]

IC50 (ITK kinase domain; Table 1, ITK, read-out: IC50): 28.6 nM
SMILES: O=C(CCN1Cc2ccccc2C1)c1ccc2ccccc2c1 [drawing 114]
